Source: paper PMC4336625 (ACS Chemical Biology, 2014)
pIC50: −log10 of the molar value.

How the values were obtained:
PLD1 [1] = biological target: T1, PLD1 (Homo sapiens, UniProt Q13393); conditions: cited from earlier work
T1 sequence (Q13393 1-1074): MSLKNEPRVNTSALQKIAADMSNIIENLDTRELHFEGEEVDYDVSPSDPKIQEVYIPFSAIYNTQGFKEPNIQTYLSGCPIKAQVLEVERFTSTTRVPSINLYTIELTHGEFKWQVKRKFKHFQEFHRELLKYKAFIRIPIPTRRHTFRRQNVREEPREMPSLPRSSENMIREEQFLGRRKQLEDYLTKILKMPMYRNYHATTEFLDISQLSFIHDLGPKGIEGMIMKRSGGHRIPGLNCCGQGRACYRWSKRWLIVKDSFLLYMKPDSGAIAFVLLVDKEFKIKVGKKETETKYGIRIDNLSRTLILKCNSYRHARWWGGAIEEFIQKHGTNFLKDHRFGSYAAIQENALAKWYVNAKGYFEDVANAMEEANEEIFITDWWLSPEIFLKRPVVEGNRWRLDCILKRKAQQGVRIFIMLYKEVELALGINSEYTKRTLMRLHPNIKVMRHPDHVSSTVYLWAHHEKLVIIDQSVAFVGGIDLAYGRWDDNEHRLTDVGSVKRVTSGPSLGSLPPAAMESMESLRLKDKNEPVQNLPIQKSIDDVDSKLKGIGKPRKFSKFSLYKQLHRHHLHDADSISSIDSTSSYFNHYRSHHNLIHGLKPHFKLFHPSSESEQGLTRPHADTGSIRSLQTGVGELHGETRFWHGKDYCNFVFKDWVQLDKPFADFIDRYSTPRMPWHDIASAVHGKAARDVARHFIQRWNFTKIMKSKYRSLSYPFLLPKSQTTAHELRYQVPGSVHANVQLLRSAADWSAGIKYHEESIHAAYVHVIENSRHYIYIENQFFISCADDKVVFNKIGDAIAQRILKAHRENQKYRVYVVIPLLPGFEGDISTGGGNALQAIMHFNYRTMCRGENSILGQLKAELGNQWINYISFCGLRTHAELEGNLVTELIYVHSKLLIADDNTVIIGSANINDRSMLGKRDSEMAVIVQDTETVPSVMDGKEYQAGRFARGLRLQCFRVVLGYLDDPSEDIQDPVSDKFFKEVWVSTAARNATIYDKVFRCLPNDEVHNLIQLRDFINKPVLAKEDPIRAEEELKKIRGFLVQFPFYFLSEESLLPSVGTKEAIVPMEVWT

PLD2 = PLD2 (Homo sapiens, UniProt O14939); conditions: cited from earlier work
PLD1 [2] = biological target: T1, PLD1; type: cell-based; conditions: read-out: mammalian PLD1 IC50
PldA = PldA (Pseudomonas aeruginosa, UniProt Q9HYC2); type: biochemical
[3] = biological target: recombinant human NAPE-PLD (Homo sapiens, UniProt Q6IQ20); assay: NAPE-PLD activity assay; type: biochemical; conditions: 20 μM
Chain of recombinant human NAPE-PLD (Q6IQ20 whole entry): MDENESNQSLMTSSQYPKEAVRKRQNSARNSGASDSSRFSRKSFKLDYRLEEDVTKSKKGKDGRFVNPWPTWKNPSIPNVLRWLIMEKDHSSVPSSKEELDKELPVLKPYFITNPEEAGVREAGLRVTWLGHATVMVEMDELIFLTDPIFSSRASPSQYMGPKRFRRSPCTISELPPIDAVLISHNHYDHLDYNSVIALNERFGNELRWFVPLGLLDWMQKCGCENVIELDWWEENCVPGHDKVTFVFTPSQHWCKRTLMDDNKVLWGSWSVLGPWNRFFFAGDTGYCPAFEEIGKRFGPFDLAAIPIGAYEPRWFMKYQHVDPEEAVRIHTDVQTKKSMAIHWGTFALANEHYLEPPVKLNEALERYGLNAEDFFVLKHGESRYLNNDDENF

Chain of PldA (Q9HYC2 1-1099): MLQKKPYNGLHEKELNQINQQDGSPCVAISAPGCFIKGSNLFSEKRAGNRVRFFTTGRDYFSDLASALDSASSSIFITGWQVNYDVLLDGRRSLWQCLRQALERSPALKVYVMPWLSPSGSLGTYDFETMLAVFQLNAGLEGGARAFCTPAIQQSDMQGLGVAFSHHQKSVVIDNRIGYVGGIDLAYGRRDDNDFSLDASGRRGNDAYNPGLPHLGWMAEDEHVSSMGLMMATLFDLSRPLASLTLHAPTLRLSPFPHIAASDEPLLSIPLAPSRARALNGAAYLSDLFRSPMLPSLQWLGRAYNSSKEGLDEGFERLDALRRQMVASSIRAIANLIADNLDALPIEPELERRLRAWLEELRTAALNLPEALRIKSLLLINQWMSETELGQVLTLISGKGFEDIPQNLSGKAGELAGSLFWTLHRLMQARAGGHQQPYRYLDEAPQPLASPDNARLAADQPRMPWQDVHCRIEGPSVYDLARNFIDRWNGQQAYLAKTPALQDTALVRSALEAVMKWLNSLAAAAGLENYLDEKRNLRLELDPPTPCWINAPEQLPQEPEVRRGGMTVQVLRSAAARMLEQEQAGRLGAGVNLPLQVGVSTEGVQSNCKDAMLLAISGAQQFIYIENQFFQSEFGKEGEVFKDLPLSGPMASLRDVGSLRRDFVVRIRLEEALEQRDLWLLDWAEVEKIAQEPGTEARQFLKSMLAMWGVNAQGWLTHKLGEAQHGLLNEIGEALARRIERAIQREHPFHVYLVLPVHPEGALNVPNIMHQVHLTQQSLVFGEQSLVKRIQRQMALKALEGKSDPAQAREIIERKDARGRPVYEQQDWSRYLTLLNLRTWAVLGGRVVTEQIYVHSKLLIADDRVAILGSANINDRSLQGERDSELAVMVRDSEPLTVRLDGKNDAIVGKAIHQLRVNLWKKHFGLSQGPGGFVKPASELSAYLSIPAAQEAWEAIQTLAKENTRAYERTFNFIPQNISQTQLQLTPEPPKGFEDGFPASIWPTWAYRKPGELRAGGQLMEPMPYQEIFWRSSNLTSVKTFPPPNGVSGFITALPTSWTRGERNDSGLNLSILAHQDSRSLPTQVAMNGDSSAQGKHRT
Chain of PLD2 (O14939 whole entry): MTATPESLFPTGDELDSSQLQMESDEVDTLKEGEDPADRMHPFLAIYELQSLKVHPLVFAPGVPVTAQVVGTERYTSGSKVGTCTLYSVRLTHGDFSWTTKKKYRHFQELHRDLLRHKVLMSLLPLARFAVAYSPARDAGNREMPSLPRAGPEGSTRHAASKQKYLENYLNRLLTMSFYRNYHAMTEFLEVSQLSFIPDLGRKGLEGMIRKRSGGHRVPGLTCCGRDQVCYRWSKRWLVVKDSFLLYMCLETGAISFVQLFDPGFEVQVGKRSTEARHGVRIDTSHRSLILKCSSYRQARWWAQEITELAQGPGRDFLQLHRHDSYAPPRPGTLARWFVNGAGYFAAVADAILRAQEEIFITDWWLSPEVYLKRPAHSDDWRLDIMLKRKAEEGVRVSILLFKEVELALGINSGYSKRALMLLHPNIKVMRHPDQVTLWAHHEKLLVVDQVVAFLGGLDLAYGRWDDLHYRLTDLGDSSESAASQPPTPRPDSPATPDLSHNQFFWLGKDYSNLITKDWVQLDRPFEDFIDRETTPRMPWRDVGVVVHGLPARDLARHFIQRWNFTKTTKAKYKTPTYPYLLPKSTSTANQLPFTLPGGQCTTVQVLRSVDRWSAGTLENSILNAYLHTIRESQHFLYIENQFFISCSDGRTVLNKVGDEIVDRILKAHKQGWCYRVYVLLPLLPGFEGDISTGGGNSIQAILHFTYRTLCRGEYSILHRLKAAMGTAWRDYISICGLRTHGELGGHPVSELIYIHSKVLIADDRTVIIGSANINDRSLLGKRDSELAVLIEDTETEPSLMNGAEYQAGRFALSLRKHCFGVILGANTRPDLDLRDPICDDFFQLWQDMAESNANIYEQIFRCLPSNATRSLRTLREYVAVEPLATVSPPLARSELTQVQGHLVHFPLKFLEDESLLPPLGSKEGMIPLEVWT

SMILES | PLD1 IC50 (PLD1 [1]) | PLD2 IC50 (PLD2) | pIC50 (PLD1 [2]) | fold more potent at PldA than inhibitors 2, 3 and 1 (PldA) | inhibition of NAPE-PLD activity, single point [3]
CC/C(=C(\c1ccccc1)c1ccc(OCCN(C)C)cc1)c1ccccc1 [Compound 8, tamoxifen] | no effect | stimulated | < 4.70 | – | –
O=C(c1ccc(OCCN2CCCCC2)cc1)c1c(-c2ccc(O)cc2)sc2cc(O)ccc12 [Compound 7, raloxifene] | – | – | – | 5- to 10 fold | not to inhibit
